Assay results: patent US11464802B2, “3-substituted piperidine compounds for Cbl-b inhibition, and use thereof” (Nurix Therapeutics, Inc., priority 2019, dated 2022)
Where two headings read alike, the source gives them in different places.

How the values were obtained:
[1] = system: primary human total T-cells; assay: Primary human total T-cell activation: IL-2 secretion, Biological Example 2; format: cell-based; details: 48 hours, fold change over baseline; for fold induction at 0.3 µM: inhibitor 0.3 μM; for fold induction at 1 µM: inhibitor 1 μM; for fold induction at 3 µM: inhibitor 3 μM
[2] = system: primary human total T-cells; assay: Primary human total T-cell activation: CD25 surface staining, Biological Example 2; format: cell-based; details: 48 hours, fold change over baseline; for fold induction at 0.3 µM: inhibitor 0.3 μM; for fold induction at 1 µM: inhibitor 1 μM; for fold induction at 3 µM: inhibitor 3 μM
[3] = target: Cbl-b (Homo sapiens (Human), UniProt Q13191); assay: Cbl-b displacement assay (Cbl-b inhibition assay), TR-FRET probe displacement, Biological Example 1; format: binding
Procedure: Candidate compounds were evaluated for their ability to bind and inhibit Cbl-b, an E3 ubiquitin-protein ligase, as evidenced by their ability to displace a fluorophore-labeled probe (Example 46) bound to Cbl-b.
The ability of candidate compounds to displace a known inhibitor and thereby inhibit Cbl-b activity was measured by monitoring the interaction of Cbl-b with a fluorophore-labeled probe in the presence of the candidate compound. A truncated variant of Cbl-b (UniProt number Q13191; SEQ ID NO:1) containing an Avitag at its N-terminus was co-expressed with BirA biotin ligase and purified using a standard protocol (see Dou et al., Nature Structural and Molecular Biology 8: 982-987, 2013; Avidity LLC).
Fluorescently-labeled inhibitor probe was synthesized and tagged with BODIPY FL (Example 46). Cbl-b displacement assays were performed in a 384-well plate at room temperature in a 10 μL reaction volume by pre-incubating 0.5 nM Cbl-b or 0.125 nM Cbl-b (final concentration, indicated as “High” and “Low”, respectively) in an assay buffer containing 20 mM HEPES pH 7.5, 150 mM NaCl, 0.01% Triton X-100, 0.01% BSA, and 0.5 mM TCEP in the presence of a candidate compound in 1% DMSO (final concentration) for 1 hour. After incubation in the presence of the candidate compound, the plate was incubated for an additional 1 hour in the presence of an approximate EC40 binding saturation consisting of 150 nM fluorescently-labeled inhibitor probe and 2 nM Streptavidin-Terbium (Cisbio) (final concentrations). Following the 1 hour incubation, the plates were read for TR-FRET signal at 520/620 nM using an Envision plate reader (Perkin Elmer).

[4] = anti-CD3/anti-CD28 co-stimulation
[5] = anti-CD3/anti-CD28 co-stimulation, read-out: IL-2 secretion CD3/CD28 1 μM
[6] = anti-CD3 alone, read-out: IL-2 secretion CD3 1 μM
[7] = anti-CD3/anti-CD28 co-stimulation, read-out: CD25 staining CD3/CD28 1 μM
[8] = anti-CD3 alone, read-out: CD25 staining CD3 1 μM
[9] = 0.125 nM Cbl-b final concentration (Low), read-out: Cbl-b activity IC50 (Low)
[10] = Cbl-b concentration (High or Low) not given, read-out: IC50 values in the Cbl-b inhibition assay of Biological Example 1
[11] = 0.5 nM Cbl-b final concentration (High), read-out: Cbl-b activity IC50 (High)

Sequence of Cbl-b (Q13191 36-427): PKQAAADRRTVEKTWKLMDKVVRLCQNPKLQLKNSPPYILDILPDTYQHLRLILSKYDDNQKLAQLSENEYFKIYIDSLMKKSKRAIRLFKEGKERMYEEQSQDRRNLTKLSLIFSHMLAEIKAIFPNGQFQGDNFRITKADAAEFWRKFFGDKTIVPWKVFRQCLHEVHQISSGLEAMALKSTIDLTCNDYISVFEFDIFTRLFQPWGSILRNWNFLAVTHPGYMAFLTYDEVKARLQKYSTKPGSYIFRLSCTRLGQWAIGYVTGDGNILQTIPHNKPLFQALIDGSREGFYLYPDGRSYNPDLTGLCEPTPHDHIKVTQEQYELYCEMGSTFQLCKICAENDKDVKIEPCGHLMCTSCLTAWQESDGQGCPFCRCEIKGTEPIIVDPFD

SMILES | fold induction at 0.3 µM [1, 4] | fold induction at 1 µM [1, 5] | fold induction at 1 µM [1, 6] | fold induction at 3 µM ([1]; anti-CD3 alone) | fold induction at 0.3 µM [2, 4] | fold induction at 1 µM [2, 7] | fold induction at 1 µM [2, 8] | fold induction at 3 µM ([2]; anti-CD3 alone) | IC50 [3, 9] | IC50 [3, 10] | IC50 [3, 11]
C[C@H]1CCCN(Cc2cc3c(c(C(F)(F)F)c2)CN(c2cccc(C4(Cc5nncn5C)COC4)c2)C3=O)[C@H]1C (relative stereo) [Compound 19, 6-((cis-2,3-dimethylpiperidin-1-yl)methyl)-2-(3-(3-((4-methyl-4H-1,2,4-triazol-3-yl)methyl)oxetan-3-yl)phenyl)-4-(trifluoromethyl)isoindolin-1-one] | < 10 | 11 to 15 | < 0.33 | 0.34 to 0.66 | 1.25 to 1.39 | 1.25 to 1.39 | 1.05 to 1.14 | 1.05 to 1.14 | 1 to 5 nM |  | 
Cn1cnnc1CC1(c2cccc(N3Cc4c(cc(CN5C[C@@H](C(F)(F)F)C[C@H](C(F)(F)F)C5)cc4C(F)(F)F)C3=O)c2)COC1 (relative stereo) [Compound 20, trans-6-{[3,5-bis(trifluoromethyl)piperidin-1-yl]methyl}-2-(3-{3-[(4-methyl-1,2,4-triazol-3-yl)methyl]oxetan-3-yl}phenyl)-4-(trifluoromethyl)-3H-isoindol-1-one] |  |  |  |  |  |  |  |  | 1 to 5 nM |  | 
C[C@H]1C[C@H](CO)CN(Cc2cc3c(c(C(F)(F)F)c2)CN(c2cccc(C4(Cc5nncn5C)COC4)c2)C3=O)C1 (relative stereo) [Compound 22, trans-6-{[3-(hydroxymethyl)-5-methylpiperidin-1-yl]methyl}-2-(3-{3-[(4-methyl-1,2,4-triazol-3-yl)methyl]oxetan-3-yl}phenyl)-4-(trifluoromethyl)-3H-isoindol-1-one] | > 15 | > 15 | > 0.66 | > 0.66 | > 1.39 | > 1.39 | < 1.04 | < 1.04 | < 1 nM | < 1 nM | 
C[C@H]1C[C@@H](CO)CN(Cc2cc3c(c(C(F)(F)F)c2)CN(c2cccc(C4(Cc5nncn5C)COC4)c2)C3=O)C1 (relative stereo) [Compound 23, cis-6-{[3-(hydroxymethyl)-5-methylpiperidin-1-yl]methyl}-2-(3-{3-[(4-methyl-1,2,4-triazol-3-yl)methyl]oxetan-3-yl}phenyl)-4-(trifluoromethyl)-3H-isoindol-1-one] | > 15 | > 15 | > 0.66 | > 0.66 | > 1.39 | > 1.39 | 1.05 to 1.14 | 1.05 to 1.14 | < 1 nM | < 1 nM | 
Cn1cnnc1CC1(c2cccc(N3Cc4c(cc(CN5CCCC(C)(F)C5)cc4C(F)(F)F)C3=O)c2)COC1 (stereo in doubt) [Compound 5, (R)-6-((3-fluoro-3-methylpiperidin-1-yl)methyl)-2-(3-(3-((4-methyl-4H-1,2,4-triazol-3-yl)methyl)oxetan-3-yl)phenyl)-4-(trifluoromethyl) isoindolin-1-one] | 11 to 15 | > 15 | < 0.33 | 0.34 to 0.66 | > 1.39 | > 1.39 | > 1.14 | > 1.14 | 5.1 to 100 nM |  | 
Cn1cnnc1CC1(c2cccc(N3Cc4c(cc(CN5CCCC(C)(F)C5)cc4C(F)(F)F)C3=O)c2)COC1 (stereo in doubt) [Compound 6, (S)-6-((3-fluoro-3-methylpiperidin-1-yl)methyl)-2-(3-(3-((4-methyl-4H-1,2,4-triazol-3-yl)methyl)oxetan-3-yl)phenyl)-4-(trifluoromethyl)isoindolin-1-one] | < 10 | > 15 | < 0.33 | 0.34 to 0.66 | > 1.39 | > 1.39 | > 1.14 | > 1.14 | 5.1 to 100 nM |  | 
C[C@@H]1CCCN(Cc2cc3c(c(C(F)(F)F)c2)CN(c2cccc(C4(Cc5nncn5C)COC4)c2)C3=O)C1 [Compound 3, (R)-2-(3-(3-((4-methyl-4H-1,2,4-triazol-3-yl)methyl)oxetan-3-yl)phenyl)-6-((3-methylpiperidin-1-yl)methyl)-4-(trifluoromethyl)isoindolin-1-one] | 11 to 15 | > 15 | 0.34 to 0.66 | 0.34 to 0.66 | 1.25 to 1.39 | 1.25 to 1.39 | 1.05 to 1.14 | 1.05 to 1.14 |  | 1 to 5 nM | 1 to 5 nM
Cn1cnnc1CC1(c2cccc(N3Cc4c(cc(CN5CCCC(CC#N)C5)cc4C(F)(F)F)C3=O)c2)COC1 (centres unmarked) [Compound 4, 2-(1-((2-(3-(3-((4-methyl-4H-1,2,4-triazol-3-yl)methyl)oxetan-3-yl)phenyl)-3-oxo-7-(trifluoromethyl)isoindolin-5-yl)methyl)piperidin-3-yl)acetonitrile] | > 15 | > 15 | 0.34 to 0.66 | 0.34 to 0.66 | > 1.39 | > 1.39 | > 1.14 | > 1.14 | 1 to 5 nM | 1 to 5 nM | 
Cn1cnnc1CC1(c2cccc(N3Cc4c(cc(CN5CCCC6(CC6)C5)cc4C(F)(F)F)C3=O)c2)COC1 [Compound 7, 6-((5-azaspiro[2.5]octan-5-yl)methyl)-2-(3-(3-((4-methyl-4H-1,2,4-triazol-3-yl)methyl)oxetan-3-yl)phenyl)-4-(trifluoromethyl)isoindolin-1-one] | 11 to 15 | 11 to 15 | < 0.33 | 0.34 to 0.66 | > 1.39 | > 1.39 | > 1.14 | > 1.14 |  |  | 5.1 to 100 nM
CC1CN(Cc2cc3c(c(C(F)(F)F)c2)CN(c2cccc(C4(Cc5nncn5C)CC4)c2)C3=O)CCC1(F)F (centres unmarked) [Compound 24, 6-((4,4-difluoro-3-methylpiperidin-1-yl)methyl)-2-(3-(1-((4-methyl-4H-1,2,4-triazol-3-yl)methyl)cyclopropyl)phenyl)-4-(trifluoromethyl)isoindolin-1-one] |  |  |  |  |  |  |  |  |  | < 1 nM | < 1 nM
CC1CN(Cc2cc3c(c(C(F)(F)F)c2)CN(c2cccc(C4([C@H](F)c5nncn5C)CC4)c2)C3=O)CCC1(F)F (stereo partly drawn) [Compound 25, 6-((4,4-difluoro-3-methylpiperidin-1-yl)methyl)-2-(3-(1-((S)-fluoro(4-methyl-4H-1,2,4-triazol-3-yl)methyl)cyclopropyl)phenyl)-4-(trifluoromethyl)isoindolin-1-one] |  |  |  |  |  |  |  |  |  | 1 to 5 nM | 1 to 5 nM
CC1CN(Cc2cc3c(c(C(F)(F)F)c2)CN(c2cccc(C4([C@@H](F)c5nncn5C)CC4)c2)C3=O)CCC1(F)F (stereo partly drawn) [Compound 26, 6-((4,4-difluoro-3-methylpiperidin-1-yl)methyl)-2-(3-(1-((R)-fluoro(4-methyl-4H-1,2,4-triazol-3-yl)methyl)cyclopropyl)phenyl)-4-(trifluoromethyl)isoindolin-1-one] |  |  |  |  |  |  |  |  |  | 1 to 5 nM | 1 to 5 nM
